Assay results: patent US20230263786A1, “MODULATION OF DRUG-DRUG INTERACTIONS OF VADADUSTAT” (Akebia Therapeutics, Inc., priority 2020, published 2023)
Where “and” joins values, the source holds several entries; their conditions need not be identical. Equal entries are not always repeated. One block for each compound: values may come before it.

What was measured:
[1] = [14C]-labeled Compound 1 650 mg metabolism and excretion; format: in vivo, human; settings: single oral 650 mg [14C]-labeled Compound 1, healthy adult males
Excerpt: Compound 1 is metabolized via UGT, mainly producing O-glucuronide conjugates.
The urinary excretion rate of this drug and acyl glucuronide is less than 1% of the total radioactivity.

[2] = Phase I ferrous sulfate tablet interaction study; settings: for Metabolite Ratio AUC(0-inf) / Metabolite Ratio AUC(0-t) / Metabolite Ratio Cmax: Metabolite/Parent; for AUC(0-inf) / AUC(0-t) / Cmax / Tmax: metabolite in plasma; for AUC(0-inf) / AUC(0-t) / Cmax: mean; for Tmax: median;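 on all read-outs here: crossover in fasted human subjects with four-day washout between periods, plasma glucuronide metabolite pharmacokinetics, ratios computed as metabolite over parent for AUC and Cmax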
Description: Pharmacokinetics. […] The ratio of metabolite to parent was calculated for each glucuronide metabolite for AUC(0-t); and AUC(0-inf) and Cmax.
Comparative Bioavailability. […] Factors incorporated in the model included: Sequence, Subject (Sequence), Period, and Treatment.
Treatment of Subjects. […] All subjects are dosed on the same day for Day 1 of Confinement Period 1, and are crossed over to the alternate treatment and are dosed on the same day for Day 1 of Confinement Period 2. Both treatments are administered in a fasted state, and a four-day Washout Period separates each Confinement Period.

[3] = Phase I single-dose study, moderate hepatic impairment versus normal hepatic function; format: in vivo, human; settings: single 450 mg; for AUC0-inf, plasma, total / AUC0-last, plasma, total / Cmax, plasma, total / Elimination Half-life (t1/2): mean ± SD
Description: A phase I, open-label, parallel-group, single-dose study was conducted to evaluate the pharmacokinetics (PK) of 450 mg vadadustat administered in adults with moderate hepatic impairment (Child-Pugh Class B) versus those with normal hepatic function. The pharmacokinetic (pK) parameters of Compound 1 were characterized. Safety and tolerability were assessed throughout the study.
Inclusion criteria: participants were male and female adults between 18 and 70 years of age, with either normal hepatic function or moderate hepatic impairment based on the Child-Pugh classification (Child-Pugh Class B [score 7-9]). Moderate hepatic impairment was defined by the presence and severity of elevated bilirubin levels, decreased serum albumin levels, elevated international normalized ratios >2.20, ascites, and hepatic encephalopathy.
Pharmacokinetics. […] PK parameters Ae0-72, Fe %0-72, and CL, were estimated from the urine concentration-time profiles.
8 subjects with hepatic impairment and 8 matched subjects with normal hepatic function were enrolled in the study. All subjects received a single oral 450-mg dose of vadadustat on Day 1 and were required to fast for at least 10 hours before dosing and for 4 hours after dosing.

[4] = Phase I interaction study Part 3 Arm 2: simvastatin; format: in vivo, human
Description: Subjects would remain fasted for approximately 4 hours after dosing. […] Subjects would remain fasted for at least 4 hours after dosing. Subjects were discharged from the clinical research unit on the morning of Day 6.

[5] = Phase I interaction study Part 3 Arm 1: atorvastatin; format: in vivo, human
Excerpt: Subjects were discharged from the clinical research unit on the morning of Day 9.

[6] = Phase I interaction study Part 2 Arm 2: pravastatin; format: in vivo, human; settings: for Cmax / AUC(0-inf) / AUC(0-t): both sexes, human, plasma, oral; for AUC(0-inf): read-out: AUC0-inf, Geometric LSM; for AUC(0-t): read-out: AUC0-last, Geometric LSM
Description: The pharmacokinetic (pK) parameters and safety of said drugs administered alone and in combination with Compound 1 were characterized.
Arm 2 (pravastatin): 26 subjects were treated with the study drug. On the morning of Day 1, subjects received a single oral dose pravastatin 40 mg after at least a 10-hour overnight fast. Subjects would remain fasted for approximately 4 hours after dosing. Following a 2-day washout period (Days 1-2) subjects received vadadustat 600 mg once daily beginning on Day 3 for 4 days (Days 3-6). When administered alone, vadadustat would be administered in the morning at least 30 minutes prior to breakfast. On Day 6, subjects received their morning dose of vadadustat 600 mg along with a single oral dose of pravastatin 40 mg after at least a 10-hour overnight fast. Subjects would remain fasted for at least 4 hours after dosing. Subjects were discharged from the clinical research unit on the morning of Day 7.

[7] = treatment Compound 1 450 mg alone
[8] = administered with Compound 1 compared to alone
[9] = Atorvastatin 40 mg, Compound 1 600 mg
[10] = atorvastatin 40 mg QD, vadadustat 600 mg QD
[11] = both sexes, human, in vivo, 40 mg
[12] = Treatment P + V: pravastatin 40 mg + vadadustat 600 mg QD
[13] = Treatment P: pravastatin 40 mg alone
[14] = pravastatin 40 mg, vadadustat 600 mg QD

Structure (SMILES): O=C(O)CNC(=O)c1ncc(-c2cccc(Cl)c2)cc1O[C@@H]1O[C@H](C(=O)O)[C@@H](O)[C@H](O)[C@H]1O [Compound 1-O-glucuronide]
share of the total radioactivity (AUC0-∞) in plasma [1]: about 15%
Metabolite Ratio AUC(0-inf) ([2]; treatment Compound 1 + Iron): 0.0943
Metabolite Ratio AUC(0-t) ([2]; treatment Compound 1 + Iron): 0.0935
Metabolite Ratio Cmax ([2]; treatment Compound 1 + Iron): 0.0748
Metabolite Ratio AUC(0-inf) ([2]; treatment Compound 1 alone): 0.104
Metabolite Ratio AUC(0-t) ([2]; treatment Compound 1 alone): 0.104
Metabolite Ratio Cmax ([2]; treatment Compound 1 alone): 0.0848
AUC(0-inf) [2, 7]: 44500 ng·h/mL
AUC(0-t) [2, 7]: 42800 ng·h/mL
Cmax [2, 7]: 6070 ng/mL
Tmax [2, 7]: 4.0 h
AUC(0-inf) ([2]; treatment Compound 1 + Iron): 19700 ng·h/mL
AUC(0-t) ([2]; treatment Compound 1 + Iron): 18600 ng·h/mL
Cmax ([2]; treatment Compound 1 + Iron): 2830 ng/mL
Tmax ([2]; treatment Compound 1 + Iron): 5.0 h
Ae0-72, cumulative amount excreted in urine up to 72 hours ([3]; Moderate Hepatic Impairment): 585 ± 125.1 mg
Fe%0-72, cumulative fraction excreted in urine ([3]; Moderate Hepatic Impairment): 82.8% and 82.8 ± 17.69%
AUC0-inf, plasma, total ([3]; Moderate Hepatic Impairment): 70900 ± 24300 ng·h/mL
AUC0-last, plasma, total ([3]; Moderate Hepatic Impairment): 68900 ± 24200 ng·h/mL
Cmax, plasma, total ([3]; Moderate Hepatic Impairment): 5850 ± 1500 ng/mL
Elimination Half-life (t1/2) ([3]; Moderate Hepatic Impairment): 6.01 ± 2.1 h
Ae0-72, cumulative amount excreted in urine up to 72 hours ([3]; Normal Liver Function): 473 ± 83.76 mg
Fe%0-72, cumulative fraction excreted in urine ([3]; Normal Liver Function): 66.9% and 66.9 ± 11.84%
AUC0-inf, plasma, total ([3]; Normal Liver Function): 63800 ± 21300 ng·h/mL
AUC0-last, plasma, total ([3]; Normal Liver Function): 62500 ± 21300 ng·h/mL
Cmax, plasma, total ([3]; Normal Liver Function): 6650 ± 2400 ng/mL
Elimination Half-life (t1/2) ([3]; Normal Liver Function): 4.74 ± 1.3 h

Structure (SMILES): CC(C)c1c(C(=O)Nc2ccccc2O)c(-c2ccccc2)c(-c2ccc(F)cc2)n1CC[C@@H](O)C[C@@H](O)CC(=O)O [o-hydroxy atorvastatin, (3R,5R)-7-[2-(4-fluorophenyl)-4-[(2-hydroxyphenyl)carbamoyl]-3-phenyl-5-propan-2-ylpyrrol-1-yl]-3,5-dihydroxyheptanoic acid]
AUC0-∞, Ratio of geometric mean value Combined/alone [5, 9]: 112.01%
Cmax, Ratio of geometric mean value Combined/alone [5, 9]: 91.20%
AUCtau, Geometric LSM Ratio (A + V/A) [5, 10]: 111.34%
Cmax, Geometric LSM Ratio (A + V/A) [5, 10]: 91.20%
AUC ([5]; both sexes, human, plasma, oral, 40 mg, heading: AUCtau, Geometric LSM): 96 ng·h/mL
Cmax ([5]; both sexes, human, plasma, oral, 40 mg, read-out: Cmax, Geometric LSM): 15 ng/mL

Other lines, results leading:

increase of total exposure [4, 8]: about 2 fold
Structure (SMILES): CCC(C)(C)C(=O)O[C@H]1C[C@@H](C)C=C2C=C[C@H](C)[C@H](CC[C@@H]3C[C@@H](O)CC(=O)O3)[C@H]21 [Simvastatin, simvastatin, reference compound]

AUC(0-inf) [4, 11]: 20200 ng·h/mL
AUC(0-t) [4, 11]: 17300 ng·h/mL
Cmax [4, 11]: 1850 ng/mL
Structure (SMILES): CCC(C)(C)C(=O)O[C@H]1C[C@@H](C)C=C2C=C[C@H](C)[C@H](CC[C@@H](O)C[C@@H](O)CC(=O)O)[C@H]21 [β-hydroxysimvastatin acid, (3R,5R)-7-[(1S,2S,6R,8S,8aR)-8-(2,2-dimethylbutanoyloxy)-2,6-dimethyl-1,2,6,7,8,8a-hexahydronaphthalen-1-yl]-3,5-dihydroxyheptanoic acid]

change of systemic exposure [6, 8]: unchanged
Cmax [6, 12]: 44 ng/mL
AUC(0-inf) [6, 12]: 137000 ng·h/mL
AUC(0-t) [6, 12]: 134000 ng·h/mL
Cmax [6, 13]: 53.2 ng/mL
AUC(0-inf) [6, 13]: 134000 ng·h/mL
AUC(0-t) [6, 13]: 130000 ng·h/mL
AUC0-inf, Geometric LSM Ratio (P + V/P) [6, 14]: 102.03%
AUC0-last, Geometric LSM Ratio (P + V/P) [6, 14]: 102.98%
Cmax, Geometric LSM Ratio (P + V/P) [6, 14]: 82.74%
Structure (SMILES): CC[C@H](C)C(=O)O[C@H]1C[C@H](O)C=C2C=C[C@H](C)[C@H](CC[C@@H](O)C[C@@H](O)CC(=O)O)[C@H]21 [Pravastatin, pravastatin]
